Results taken from PubChem BioAssay AID463098 (The Scripps Research Institute Molecular Screening Center, 2010).
The source made the active and inactive calls.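 The calls were made as follows: active = compounds that block at least 90% of GSTO1 probe labeling in cell lysate; inactive = the rest.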

What follows are compounds tested against Glutathione S-transferase omega-1 (Homo sapiens) (UniProt P78417) (assay: endogenous GSTO1 inhibitors in proteome, late-stage follow-up, cell lysate, MDA-MB-435 proteome, gel ABPP, SE-Rh, percent inhibition (AID 463098)). Settings: gel ABPP SE-Rh fluorescence, at 1 µM, stronger effect = higher value.
Glutathione S-transferase omega-1 (Homo sapiens), sequence (P78417 whole entry, looked up): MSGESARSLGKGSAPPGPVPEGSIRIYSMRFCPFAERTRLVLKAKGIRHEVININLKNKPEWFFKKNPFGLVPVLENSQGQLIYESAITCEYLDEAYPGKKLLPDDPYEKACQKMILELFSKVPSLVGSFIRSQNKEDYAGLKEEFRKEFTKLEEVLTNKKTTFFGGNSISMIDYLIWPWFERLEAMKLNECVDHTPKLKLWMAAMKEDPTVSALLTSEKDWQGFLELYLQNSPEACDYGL

SMILES | inhibition
CCCCCCN(C(=O)CCl)c1ccccc1 | 43% (inactive)
O=C(NC1CCCC1)C(c1ccc(F)cc1)N(Cc1ccccc1Cl)C(=O)CCl (configuration not stated) | 61% (inactive)
COC(CN(C(=O)CCl)C(C(=O)NC1CCCCC1)c1ccccc1C)OC (configuration not stated) | 0% (inactive)
O=C(CCl)N(Cc1ccccc1)c1ccccc1 | 56% (inactive)
CN(Cc1ccc(Cl)cc1)C(=O)CCl | 18% (inactive)
CCC(C)N(CC(=O)Nc1cccc(C)c1C)C(=O)CCl (configuration not stated) | 26% (inactive)
CN(Cc1ccc(Cl)s1)C(=O)CCl | 83% (inactive)
CCc1ccc(-c2nc(CCl)cs2)cc1 | 40% (inactive)
CC(=O)n1cc(N(C(=O)CCl)c2ccc(C)cc2)c2ccccc21 | 70% (inactive)
COc1ccc(N(C(=O)CCl)C(C(=O)NCCc2ccccc2)c2cccs2)cc1Cl (configuration not stated) | 100%
COc1ccc(N(C(=O)CCl)C(C(=O)NCCc2ccccc2)c2cccs2)cc1 (configuration not stated) | 86% (inactive)
O=C(CCl)N(c1ccc(Cl)cc1)c1c[nH]c2ccccc12 | 23% (inactive)
Cc1nn(-c2ccccc2)c(Cl)c1CN(C(=O)CCl)c1ccc(Cl)cc1 | 93%
O=C(CCl)N(C/C=C/c1ccccc1)c1ccc2c(c1)OCCO2 | 58% (inactive)
COc1ccc(C(CCN(Cc2ccc(OC)c(OC)c2)C(=O)CCl)c2ccccc2)cc1 (configuration not stated) | 100%
CN(C)C(=O)CN1CCN(C(=O)CCl)CC1 | 3% (inactive)
CC(=O)n1cc(N(C(=O)CCl)c2ccc(Cl)cc2)c2ccccc21 | 38% (inactive)
Cc1nn(-c2ccc(Cl)cc2)c2[nH]c(CCl)cc(=O)c12 | 26% (inactive)
O=C(O)C1Cc2ccccc2CN1C(=O)CCl (configuration not stated) | 84% (inactive)
CCOC(=O)N1CCN(C(=O)CCl)CC1 | 22% (inactive)
COc1cc2c(cc1OC)C(c1cc(Br)ccc1F)N(C(=O)CCl)CC2 (configuration not stated) | 80% (inactive)
CCOC(=O)c1sc(N(Cc2ccccc2)C(=O)CCl)nc1C | 82% (inactive)
O=Cc1[nH]c2ccccc2c1N(C(=O)CCl)c1ccc([N+](=O)[O-])cc1 | 75% (inactive)
Cc1cccc(N(Cc2cc(=O)[nH]c3ccccc23)C(=O)CCl)c1 | 82% (inactive)

SMILES | inhibition
O=C(CCl)N1c2ccccc2SCC1c1ccccc1 (configuration not stated) | 65% (inactive)
O=c1cc(CCl)nc2scc(-c3ccccc3)n12 | 22% (inactive)
O=C(CCl)N1c2ccccc2OCC1c1ccccc1 (configuration not stated) | 37% (inactive)
O=C(CCl)N(c1ccccc1)C1CCCCC1 | 24% (inactive)
CCCN(C(=O)CCl)C1=CCCCC1 | 0% (inactive)
CCCCCCCN(C(=O)CCl)c1cccc(C)c1 | 58% (inactive)
CCCCCn1c(=O)c2ccccc2n2c(CCl)nnc12 | 73% (inactive)
CCC1(CC)Cc2ccccc2-c2nc(CCl)[nH]c(=O)c21 | 84% (inactive)
O=c1[nH]c(CCl)nc2cc(-c3ccc(F)cc3)sc12 | 100%
Cc1cccc(CN2CCN(C(=O)CCl)CC2)c1 | 90%
COc1ccc(C(C(=O)NC2CCCCC2)N(C(=O)CCl)c2cccc(Cl)c2)cc1 (configuration not stated) | 100%
CCOc1ccc(CN(C)C(=O)CCl)cc1 | 47% (inactive)
COc1cccc(N(C(=O)CCl)C(C(=O)NCCc2ccccc2)c2cccs2)c1 (configuration not stated) | 75% (inactive)
Cc1nn(-c2ccccc2)c(Cl)c1CN(C(=O)CCl)c1cccc2ccccc12 | 34% (inactive)
O=C(NC1CCCCC1)C(c1cccnc1)N(C(=O)CCl)c1ccc(F)cc1 (configuration not stated) | 100%
C=CCOc1ccccc1CN(C(=O)CCl)c1ccc2c(c1)OCO2 | 35% (inactive)
Cc1ccc(N(Cc2cc(=O)[nH]c3ccccc23)C(=O)CCl)cc1 | 41% (inactive)
O=C(NCCc1ccccc1)C(c1cccs1)N(C(=O)CCl)c1ccc(Cl)cc1 (configuration not stated) | 88% (inactive)
COc1ccc(N(C(=O)CCl)C(C(=O)NC2CCCCC2)c2cccnc2)cc1 (configuration not stated) | 97%
O=C(NC1CCCCC1)C(c1cccnc1)N(C(=O)CCl)c1cccc(Cl)c1 (configuration not stated) | 100%
O=C(CCl)N(Cc1cc(=O)[nH]c2ccccc12)c1ccccc1 | 38% (inactive)
COc1cc2c(cc1OC)C(c1ccccc1)N(C(=O)CCl)CC2 (configuration not stated) | 81% (inactive)
O=c1cc(CCl)nc(Cc2c(Cl)cccc2Cl)[nH]1 | 59% (inactive)
Cc1ccc2c(c1)c(=O)c1c3n2CCN(C(=O)CCl)C3CC1 (configuration not stated) | 57% (inactive)

SMILES | inhibition
Cc1ccc(NC(=O)Cc2nc(CCl)cs2)cc1 | 55% (inactive)
Cc1ccc2c(c1)c1c3n2CCN(C(=O)CCl)C3CCC1 (configuration not stated) | 96%
O=c1cc(CCl)nc2sc3ccccc3n12 | 83% (inactive)
Cc1ccc(N(C(=O)CCl)C(C(=O)NC2CCCCC2)c2cccnc2)cc1C (configuration not stated) | 76% (inactive)
N#CCCN(C(=O)CCl)c1cccc(Cl)c1 | 69% (inactive)
COc1ccc(N(Cc2cc(=O)[nH]c3ccccc23)C(=O)CCl)cc1 | 38% (inactive)
CC(C)CCn1c(=O)c2ccccc2n2c(CCl)nnc12 | 87% (inactive)
COCCN(C(=O)CCl)C(C(=O)NC1CCCCC1)c1ccccc1C (configuration not stated) | 25% (inactive)
O=C(CCl)N(CCc1ccccc1)CCc1ccccc1 | 57% (inactive)
CCCCCCCN(C(=O)CCl)c1ccccc1C | 51% (inactive)
COc1ccc(C(C(=O)NC2CCCCC2)N(C(=O)CCl)c2ccc(Cl)cc2)cc1 (configuration not stated) | 100%
CC(=O)n1cc(N(C(=O)CCl)c2ccccc2)c2ccccc21 | 0% (inactive)
CC1CCc2c(sc3nc(C(C)(C)C)nc(N4CCN(C(=O)CCl)CC4)c23)C1 (configuration not stated) | 48% (inactive)
CC1CCN(C(=O)CCl)CC1 | 53% (inactive)
O=C(CCl)N1CCN(S(=O)(=O)c2ccc3ccccc3c2)CC1 | 100%
CC1CCCN(C(=O)CCl)C1 (configuration not stated) | 34% (inactive)
COc1ccccc1NS(=O)(=O)c1ccc2nc(CCl)[nH]c2c1 | 88% (inactive)
COc1cccc(-c2nc(CCl)cs2)c1 | 50% (inactive)
COc1ccc(CN(CCC(c2ccccc2)c2ccc(OC(C)C)cc2)C(=O)CCl)cc1OC (configuration not stated) | 81% (inactive)
COC(=O)C1Cc2ccccc2CN1C(=O)CCl (configuration not stated) | 40% (inactive)
CC(C)N(CC(=O)Nc1ccc(Cl)cc1C(F)(F)F)C(=O)CCl | 7% (inactive)
O=S(=O)(c1ccc(Cl)cc1)N1CCC2(CC1)CO2 | 94%
COc1ccc(C(C(=O)NC2CCCCC2)N(C(=O)CCl)c2ccc(C)cc2)cc1 (configuration not stated) | 82% (inactive)
COC(=O)CC1C(=O)NC2CCCCC2N1C(=O)CCl (configuration not stated) | 0% (inactive)
